From ChEMBL document CHEMBL1201862, “PubChem BioAssay data set” (2004)
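Test compounds were applied to cells in 96-well plates for 48 hours at 5 doses. GI50 = concentration required for 50% inhibition of growth.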 The source made the active and inactive calls. Rule as the data show it: active = GI50 up to about 1.1 µM and inactive = higher.

Tests used:
Test in all cases: growth of human tumour cells (NCI), 48 h
[1] = test system: A498
[2] = test system: ACHN
[3] = test system: HL-60
[4] = test system: HOP-92
[5] = test system: HT-29
[6] = test system: IGROV-1
[7] = test system: M14
[8] = test system: NCI-H23
[9] = test system: OVCAR-8
[10] = test system: SF-539
[11] = test system: SK-OV-3
[12] = test system: SN12C
[13] = test system: SNB-75
[14] = test system: TK-10
[15] = test system: UACC-257
[16] = test system: DU-145
[17] = test system: Hs-578T
[18] = test system: MDA-MB-231
[19] = test system: MDA-MB-435
[20] = test system: BT-549

Row | Structure (SMILES) | GI50 [1] | GI50 [2] | GI50 [3] | GI50 [4] | GI50 [5] | GI50 [6] | GI50 [7] | GI50 [8] | GI50 [9] | GI50 [10] | GI50 [11] | GI50 [12] | GI50 [13] | GI50 [14] | GI50 [15] | GI50 [16] | GI50 [17] | GI50 [18] | GI50 [19] | GI50 [20]
1 | CCOC(=O)CNC(=O)OCc1ccccc1 | > 100 µM (inactive) | > 100 µM (inactive) | > 100 µM (inactive) | > 100 µM (inactive) | > 100 µM (inactive) | > 100 µM (inactive) | > 100 µM (inactive) | > 100 µM (inactive) | > 100 µM (inactive) | > 100 µM (inactive) | > 100 µM (inactive) | > 100 µM (inactive) | > 100 µM (inactive) | > 100 µM (inactive) | > 100 µM (inactive) | – | – | – | – | –
2 | CC(C)C(=S)N(C)O | 19.1 µM (inactive) | 31 µM (inactive) | 1.35 µM (inactive) | 47.8 µM (inactive) | 1.46 µM (inactive) | > 62.5 µM (inactive) | 21.6 µM (inactive) | 29.8 µM (inactive) | 13.9 µM (inactive) | 25.6 µM (inactive) | 55.3 µM (inactive) | 26.6 µM (inactive) | 22.4 µM (inactive) | > 51.3 µM (inactive) | 29.1 µM (inactive) | – | – | – | – | –
3 | O=C(O)CCCNS(=O)(=O)c1ccccc1 | > 100 µM (inactive) | > 100 µM (inactive) | > 100 µM (inactive) | > 100 µM (inactive) | > 100 µM (inactive) | > 100 µM (inactive) | > 100 µM (inactive) | > 100 µM (inactive) | > 100 µM (inactive) | > 100 µM (inactive) | > 100 µM (inactive) | > 100 µM (inactive) | > 100 µM (inactive) | > 100 µM (inactive) | > 100 µM (inactive) | – | – | – | – | –
4 | COc1ccc2c(c1)c1c3c(ccc4ncn2c43)N(CCN(C)C)CCN=1 | 1.42 µM (inactive) | 0.701 µM (active) | 0.333 µM (active) | 1.49 µM (inactive) | 0.135 µM (active) | 1.31 µM (inactive) | 0.895 µM (active) | 0.968 µM (active) | 0.284 µM (active) | 0.362 µM (active) | 0.908 µM (active) | 0.316 µM (active) | 0.764 µM (active) | 1.49 µM (inactive) | 1.85 µM (inactive) | 0.942 µM (active) | 1.06 µM (active) | 0.476 µM (active) | 0.378 µM (active) | –
5 | COC1CC2C3/C(=N/Nc4ccc([N+](=O)[O-])cc4[N+](=O)[O-])CCC2(C)C3C1 (stereo not drawn) | > 10 µM (inactive) | > 10 µM (inactive) | 52.6 µM (inactive) | > 10 µM (inactive) | > 10 µM (inactive) | > 10 µM (inactive) | > 10 µM (inactive) | > 10 µM (inactive) | > 100 µM (inactive) | > 10 µM (inactive) | > 10 µM (inactive) | > 10 µM (inactive) | > 10 µM (inactive) | > 100 µM (inactive) | > 100 µM (inactive) | – | – | – | – | –
6 | C[n+]1ccc2/c(=C\C#N)c3ccccc3n21 | – | 39.2 µM (inactive) | 17.3 µM (inactive) | 22.4 µM (inactive) | 22.9 µM (inactive) | 23.9 µM (inactive) | 48.2 µM (inactive) | 11.4 µM (inactive) | 36.6 µM (inactive) | – | 30.6 µM (inactive) | 27.9 µM (inactive) | – | 22 µM (inactive) | < 0.01 µM (active) | 15.8 µM (inactive) | – | – | 23.3 µM (inactive) | 16.6 µM (inactive)
7 | O=C1OCCC12CN(Cc1ccccc1)N=N2 (stereo not drawn) | > 100 µM (inactive) | 29.9 µM (inactive) | – | > 100 µM (inactive) | > 100 µM (inactive) | – | > 100 µM (inactive) | > 100 µM (inactive) | > 100 µM (inactive) | > 100 µM (inactive) | > 100 µM (inactive) | > 100 µM (inactive) | – | > 100 µM (inactive) | – | 87.7 µM (inactive) | – | > 100 µM (inactive) | > 100 µM (inactive) | –
8 | O=C1c2ccccc2C2C1N2C(=O)C(F)(F)F (stereo not drawn) | > 100 µM (inactive) | > 100 µM (inactive) | 24.7 µM (inactive) | > 100 µM (inactive) | 74.8 µM (inactive) | > 100 µM (inactive) | > 100 µM (inactive) | > 100 µM (inactive) | > 100 µM (inactive) | > 100 µM (inactive) | > 100 µM (inactive) | > 100 µM (inactive) | > 100 µM (inactive) | > 100 µM (inactive) | > 100 µM (inactive) | – | – | – | – | –
9 | CC(=O)O/N=C/c1ncccc1OC(C)=O | > 100 µM (inactive) | > 100 µM (inactive) | > 100 µM (inactive) | > 100 µM (inactive) | > 100 µM (inactive) | > 100 µM (inactive) | > 100 µM (inactive) | > 100 µM (inactive) | > 100 µM (inactive) | > 100 µM (inactive) | > 100 µM (inactive) | > 100 µM (inactive) | > 100 µM (inactive) | > 100 µM (inactive) | > 100 µM (inactive) | – | – | – | – | –
